ChEMBL document CHEMBL6153079, “Discovery of noncovalent diaminopyrimidine-based Inhibitors for glioblastoma via a dual FAK/DNA targeting strategy” (Eur J Med Chem, 2025)
Activity calls are given as the source filed them. The rule behind the calls is not given here.

Assays:
[1] = system: U-87 MG; test: Inhibition of AKT phosphorylation in human U-87 MG cells at 0.05 uM incubated for 24 hrs by Western blot analysis; assay type: cell-based
[2] = Toxicity in BALB/c mouse implanted with human U-87 MG cells assessed as lung damage at 5 mg/kg, ip administered once daily for 15 days by H and E staining based analysis; assay type: organism-based; settings: in vivo, 360 h, time 15 day
[3] = system: U-87 MG; test: Induction of apoptosis in human U-87 MG cells assessed as viable cells at 0.2 uM measured upto 24 hrs by Annexin V-FITC/PI staining based flow cytometry analysis (reference value: 98.4%); assay type: functional, U-87MG ATCC; settings: read-out: Activity
[4] = Selectivity ratio of IC50 for cytotoxicity against human LO2 assessed as cell viability to IC50 for antiproliferative activity against human U-251 assessed as cell viability; assay type: toxicity; settings: LO2 cells versus U-251 cells, read-out: Ratio IC50
[5] = system: U-87 MG; test: Induction of apoptosis in human U-87 MG cells assessed as early apoptotic cells at 0.01 uM measured upto 24 hrs by Annexin V-FITC/PI staining based flow cytometry analysis (reference value: 0.45%); assay type: functional, U-87MG ATCC
[6] = Toxicity in BALB/c mouse implanted with human U-87 MG cells assessed as spleen damage at 5 mg/kg, ip administered once daily for 15 days by H and E staining based analysis; assay type: organism-based; settings: in vivo, 360 h, time 15 day
[7] = Effective permeability of compound at pH 7.4 incubated for 16 hrs by LCMS analysis; assay type: ADME; settings: pH 7.4, 16 h
[8] = system: U-87 MG; test: Antiproliferative activity against human U-87 MG assessed as inhibition of cell growth at 0.025 to 0.1 uM; assay type: functional, U-87MG ATCC; settings: dose 0.025-0.1 µM
[9] = system: U-87 MG; test: Induction of apoptosis in human U-87 MG cells assessed as necrotic cells at 2 uM measured upto 24 hrs by Annexin V-FITC/PI staining based flow cytometry analysis (reference value: 0.62%); assay type: functional, U-87MG ATCC
[10] = target: T1, Focal adhesion kinase 1 (Homo sapiens, UniProt Q05397); test: Inhibition of FAK phosphorylation in human U-87 MG cells at 0.8 uM incubated for 24 hrs by Western blot analysis; assay type: cell-based
[11] = Toxicity in BALB/c mouse implanted with human U-87 MG cells assessed as tubular epithelial degeneration in renal cortex at 5 mg/kg, ip administered once daily for 15 days by H and E staining based analysis; assay type: organism-based; settings: in vivo, 360 h, time 15 day
[12] = target: T1, Focal adhesion kinase 1; test: Inhibition of FAK (unknown origin) at 50 nM relative to control
[13] = system: U-87 MG; test: Antiproliferative activity against human U-87 MG assessed as cell growth inhibition at 0.1 to 2 uM; assay type: functional, cell-based; settings: U-87MG ATCC
[14] = system: U-87 MG; test: Antiproliferative activity against human U-87 MG assessed as cell viability incubated for 48 hrs by MTT assay; assay type: functional, cell-based, U-87MG ATCC
[15] = system: U-87 MG; test: Induction of apoptosis in human U-87 MG cells assessed as late apoptotic cells at 0.02 uM measured upto 24 hrs by Annexin V-FITC/PI staining based flow cytometry analysis (reference value: 0.54%); assay type: functional, U-87MG ATCC
[16] = system: U-87 MG; test: Antiproliferative activity against human U-87 MG assessed as inhibition of cell growth at 0.005 uM by clonogenic assay relative to control; assay type: functional, U-87MG ATCC
[17] = system: U-87 MG; test: Induction of apoptosis in human U-87 MG cells assessed as late apoptotic cells at 0.01 uM measured upto 24 hrs by Annexin V-FITC/PI staining based flow cytometry analysis (reference value: 0.54%); assay type: functional, U-87MG ATCC
[18] = system: U-87 MG; test: Induction of cell cycle arrest in human U-87 MG cells assessed as accumulation of cells at S phase at 0.01 uM by propidium Iodide staining based flow cytometry analysis (reference value: 9.59%); assay type: functional, U-87MG ATCC
[19] = system: U-87 MG; test: Induction of apoptosis in human U-87 MG cells assessed as early apoptotic cells at 2 uM measured upto 24 hrs by Annexin V-FITC/PI staining based flow cytometry analysis (reference value: 0.45%); assay type: functional, U-87MG ATCC
[20] = system: U-87 MG; test: Antitumor activity against human U-87 MG cells xenografted in BALB/c mouse assessed as inhibition of tumor growth at 25 mg/kg, ip administered once daily for 15 days; assay type: functional, U-87MG ATCC; settings: 360 h, time 15 day, read-out: TGI
[21] = system: U-87 MG; test: Induction of cell cycle arrest in human U-87 MG cells assessed as accumulation of cells at G2M phase at 0.2 uM by propidium Iodide staining based flow cytometry analysis (reference value: 9.73%); assay type: functional, U-87MG ATCC
[22] = system: U-87 MG; test: Induction of cell cycle arrest in human U-87 MG cells assessed as accumulation of cells at G0/G1 phase at 0.02 uM by propidium Iodide staining based flow cytometry analysis (reference value: 80.68%); assay type: functional, U-87MG ATCC
[23] = system: U-87 MG; test: Induction of apoptosis in human U-87 MG cells assessed as early apoptotic cells at 0.02 uM measured upto 24 hrs by Annexin V-FITC/PI staining based flow cytometry analysis (reference value: 0.45%); assay type: functional, U-87MG ATCC
[24] = Toxicity in BALB/c mouse implanted with human U-87 MG cells assessed as tubular epithelial degeneration in renal cortex at 25 mg/kg, ip administered once daily for 15 days by H and E staining based analysis; assay type: organism-based; settings: in vivo, 360 h, time 15 day
[25] = system: U-87 MG; test: Induction of apoptosis in human U-87 MG cells assessed as necrotic cells at 0.01 uM measured upto 24 hrs by Annexin V-FITC/PI staining based flow cytometry analysis (reference value: 0.62%); assay type: functional, U-87MG ATCC
[26] = system: U-87 MG; test: Induction of cell cycle arrest in human U-87 MG cells assessed as accumulation of cells at S phase at 0.02 uM by propidium Iodide staining based flow cytometry analysis (reference value: 9.59%); assay type: functional, U-87MG ATCC
[27] = system: U-87 MG; test: Induction of apoptosis in human U-87 MG cells assessed as […] in cleaved caspase-3 level at 0.05 to 0.8 uM incubated for 24 hrs by Western blot analysis; assay type: functional, cell-based; settings: U-87MG ATCC, dose 0.05-0.8 µM
[28] = system: U-87 MG; test: Induction of apoptosis in human U-87 MG cells assessed as early apoptotic cells at 0.2 uM measured upto 24 hrs by Annexin V-FITC/PI staining based flow cytometry analysis (reference value: 0.45%); assay type: functional, U-87MG ATCC
[29] = system: U-87 MG; test: Induction of cell cycle arrest in human U-87 MG cells assessed as accumulation of cells at G0/G1 phase at 0.01 uM by propidium Iodide staining based flow cytometry analysis (reference value: 80.68%); assay type: functional, U-87MG ATCC
[30] = system: U-87 MG; test: Induction of cell cycle arrest in human U-87 MG cells assessed as accumulation of cells at […] at 0.2 uM by propidium Iodide staining based flow cytometry analysis (reference value: 1.67%); assay type: functional, U-87MG ATCC
[31] = Toxicity in BALB/c mouse implanted with human U-87 MG cells assessed as mortality at 5 to 25 mg/kg, ip administered once daily for 15 days by H and E staining based analysis; assay type: organism-based; settings: in vivo, 360 h, dose 5-25 mg/kg, time 15 day
[32] = system: U-87 MG; test: Induction of cell cycle arrest in human U-87 MG cells assessed as accumulation of cells at […] at 0.02 uM by propidium Iodide staining based flow cytometry analysis (reference value: 1.67%); assay type: functional, U-87MG ATCC
[33] = system: U-87 MG; test: Inhibition of colony formation in human U-87 MG cells at 0.005 uM incubated for 14 days and subsequent media replacement with compound for every 3 days by crystal violet staining based analysis; assay type: functional, cell-based; settings: U-87MG ATCC, time 14.0 day
[34] = system: U-87 MG; test: Induction of apoptosis in human U-87 MG cells assessed as viable cells at 0.01 uM measured upto 24 hrs by Annexin V-FITC/PI staining based flow cytometry analysis (reference value: 98.4%); assay type: functional, U-87MG ATCC; settings: read-out: Activity

T1 sequence (Q05397 2-1052 limits assumed): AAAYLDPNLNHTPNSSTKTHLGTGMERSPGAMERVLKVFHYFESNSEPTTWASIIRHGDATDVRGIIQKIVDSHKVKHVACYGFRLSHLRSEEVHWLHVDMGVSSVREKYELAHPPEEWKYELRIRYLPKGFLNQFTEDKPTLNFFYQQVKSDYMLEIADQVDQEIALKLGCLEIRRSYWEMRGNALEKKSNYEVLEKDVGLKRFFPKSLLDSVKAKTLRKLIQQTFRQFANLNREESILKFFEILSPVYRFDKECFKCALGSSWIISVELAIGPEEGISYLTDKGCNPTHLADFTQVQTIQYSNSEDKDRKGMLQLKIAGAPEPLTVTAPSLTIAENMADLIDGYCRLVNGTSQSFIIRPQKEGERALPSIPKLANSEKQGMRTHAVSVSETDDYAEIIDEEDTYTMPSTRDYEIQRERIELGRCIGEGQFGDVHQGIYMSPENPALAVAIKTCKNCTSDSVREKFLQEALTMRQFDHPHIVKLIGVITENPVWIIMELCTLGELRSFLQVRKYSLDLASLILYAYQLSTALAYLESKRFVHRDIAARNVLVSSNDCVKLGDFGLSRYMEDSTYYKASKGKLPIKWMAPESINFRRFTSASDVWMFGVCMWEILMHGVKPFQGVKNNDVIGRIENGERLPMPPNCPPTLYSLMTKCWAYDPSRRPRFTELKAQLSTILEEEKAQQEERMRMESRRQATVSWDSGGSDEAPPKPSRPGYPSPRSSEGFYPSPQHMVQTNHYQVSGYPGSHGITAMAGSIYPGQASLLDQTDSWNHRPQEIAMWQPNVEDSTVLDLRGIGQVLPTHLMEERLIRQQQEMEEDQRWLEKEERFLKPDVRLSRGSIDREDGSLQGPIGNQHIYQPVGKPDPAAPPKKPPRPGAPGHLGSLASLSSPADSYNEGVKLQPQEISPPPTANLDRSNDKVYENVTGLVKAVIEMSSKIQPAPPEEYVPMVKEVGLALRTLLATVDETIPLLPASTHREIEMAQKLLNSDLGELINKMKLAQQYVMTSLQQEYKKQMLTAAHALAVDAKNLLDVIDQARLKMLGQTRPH

CNC(=O)c1ccccc1Nc1nc(Nc2ccc(N3CCN(CCOC(=O)CCCc4ccc(N(CCCl)CCCl)cc4)CC3)cc2)ncc1C(F)(F)F
inhibition [1]: Active
Activity [2]: Non-toxic
viability at 0.2 µM [3]: 63.7%
selectivity ratio [4]: > 40
Activity [5]: 15.8%
Activity [6]: Non-toxic
Peff [7]: 0.002 10^-6 cm/s
inhibition (INH) [8]: 100%
Activity [9]: 2.16%
inhibition [10]: 100%
Activity [11]: Non-toxic
inhibition [12]: 100%
Activity [13]: Active
IC50 [14]: 15 nM
Activity [15]: 4.8%
inhibition at 0.005 µM [16]: 73%
Activity [17]: 4.61%
Activity [18]: 13.83%
Activity [19]: 46.5%
inhibition in vivo at 25 mg/kg [20]: 82.5%
Activity [21]: 43.61%
Activity [22]: 62.68%
Activity [23]: 25.9%
Activity [24]: Non-toxic
Activity [25]: 4.83%
Activity [26]: 16.42%
Activity [27]: Active
Activity [28]: 28.3%
Activity [29]: 69.64%
Activity [30]: 1.81%
Activity [31]: Non-toxic
Activity [32]: 1.87%
inhibition [33]: Active
viability at 0.01 µM [34]: 74.8%
